# Assay results as given in patent US8063095B2, “IAP BIR domain binding compounds” (Pharmascience Inc., priority 2005, dated 2011).
# Key:
# [1] = target: T1, XIAP L-Bir2-Bir3 (GST-XIAP Linker Bir2Bir3RING fusion protein) (Homo sapiens, UniProt P98170); experiment: Caspase de-repression assay using cellular extracts (apoptosome), L-Bir2-Bir3 XIAP; type: biochemical; conditions: 293 cell S100 extract; effective concentration to achieve 50% of activation
# T1 construct: made in house; host or cells: E. coli DH5-alpha
# Procedure: GST-linker BIR2BIR3Ring: XIAP coding sequence from amino acids 93-497 cloned into PGex4T1 via BamH1 and XhoI. Amino acids 93-497 were amplified from full length XIAP in pGex4t3, using the primers: […] and GCTGCATGTGTGTCAGAGG, using standard PCR conditions. The PCR fragment was TA cloned into pCR-2.1 (invitrogen). Linker BIR2BIR3Ring was subcloned into pGex4T1 by BamHI/XhoI digestion. The plasmid was transformed into E. coli DH5α for use in protein expression and purification. […]
# 100 ug of 293 cell S100 extract and 0.25 uM-2 uM of GST-XIAP fusion protein (XIAP-Bir3RING, XIAP-Linker Bir2Bir3RING, or full-length XIAP) were co-incubated with serial dilutions of compound (40 uM-5 pM). Caspases present in the extracts were activated by adding 1 mM dATP, 0.1 mM ALLN, 133 ug Cytochrome C (final concentrations), and incubating at 37° C. for 25 minutes. All reactions and dilutions used S100 buffer (50 mM Pipes pH 7.0, 50 mM KCl, 0.5 mM EGTA pH 8.0, 2 mM MgCl2 supplemented with 1/1000 dilutions of 2 mg/ml Cytochalisin B, 2 mg/ml Chymotstatin, Leupeptin, Pepstatin, Antipain, 0.1M PMSF, 1M DTT). Final reaction volume was 30 ul. Caspase-3 activity was measured by overlaying 30 ul of a 0.4 mM DEVD-AMC solution. released AMC cleavage was measured in a TECAN spectrophotometer at 360 nm excitation and 444 nm emission, on a kinetic cycle of 1 hour with readings taken every 5 minutes. Caspase activity was calculated as Vo of AMC fluorescence/sec. Caspase de-repression by our compounds was compared to fully activated extract and activated extract repressed by the presence of XIAP fusion protein.
# [2] = target: T2, XIAP bir3 domain (GST-XIAP BIR3RING) (Homo sapiens, UniProt P98170); experiment: Fluorescence polarization-based competition assay, XIAP; type: binding; conditions: Ki calculated from displacement of fluorescent probe; read-out: Fluorescent polarization (FP) assay Xiap
# T2 construct: made in house; host or cells: E. coli DH5-alpha
# Procedure: GST-XIAP BIR3RING: XIAP coding sequence amino acids 246-497 cloned into PGEX2T1 via BamH1 and AVA I. The plasmid was transformed into E. coli DH5a for use in protein expression and purification.
# (§1) A fluorescent peptide probe, Fmoc-Ala-Val-Pro-Phe-Tyr(t-Bu)-Leu-Pro-[…]-Gly-OH was prepared using standard Fmoc chemistry on 2-chlorotrityl chloride resin (Int. J. Pept. Prot. Res. 38:555-561, 1991). Cleavage from the resin was performed using 20% acetic acid in dichloromehane (DCM), which left the side chain still blocked. The C-terminal protected carboxylic acid was coupled to 4′-(aminomethy)fluorescein (Molecular Probes, A-1351; Eugene, Oreg.) using excess diisopropylcarbodiimide (DIC) in dimethylformamide (DMF) at room temperature and was purified by silica gel chromatography (10% methanol in DCM). The N-terminal Fmoc protecting group was removed using piperidine (20%) in DMF, and purified by silica gel chromatography (20% methanol in DCM, 0.5% HOAc). Finally, the t-butyl side chain protective groups were removed using 95% trifluoroacetic acid containing 2.5% water and 2.5% triisopropyl silane.
# (§2) For all assays, the fluorescence and fluorescence-polarization was evaluated using a Tecan Polarion instrument with the excitation filter set at 485 nm and the emission filter set at 535 nm. For each assay, the concentration of the target protein was first establish by titration of the selected protein in order to produce a linear dose-response signal when incubated alone in the presence of the fluorescent probe. Upon establishing these conditions, the compounds potency (IC50) and selectivity, was assessed in the presence of a fix defined amount of target protein and fluorescent probe and a 10 point serial dilution of the selected compounds. For each IC50 curve, the assays were run as followed: 25 ul/well of diluted compound in 50 mM MES buffer pH 6.5 were added into a black 96 well plate then 25 ul/well of bovine serum albumin (BSA) at 0.5 mg/ml in 50 mM MES pH 6.5. Auto-fluorescence for each compound was first assessed by performing a reading of the compound/BSA solution alone. Then 25 ul of the fluorescein probe diluted into 50 mM MES containing 0.05 mg/ml BSA were added and a reading to detect quenching of fluorescein signal done. Finally 25 ul/well of the target or control protein (GST-BIRs) diluted at the appropriate concentration in 50 mM MES containing 0.05 mg/ml BSA were added and the fluorescence polarization evaluated.
# (§3) For each assay the relative polarization-fluorescence units were plotted against the final concentrations of compound and the IC50 calculated using the Grad pad prism software and/or Cambridge soft. The ki value were derived from the calculated IC50 value as described above and according to the equation described in Nikolovska-Coleska, Z. (2004) Anal Biochem 332, 261-273.
# [3] = target: T3, cIAP-1 bir3 domain (GST-HIAP2 (cIAP-1) BIR3) (Homo sapiens, UniProt Q13490); experiment: Fluorescence polarization-based competition assay, cIAP-1; type: binding; conditions: Ki calculated from displacement of fluorescent probe; read-out: Fluorescent polarization (FP) assay cIAP-1
# T3 construct: made in house; host or cells: E. coli DH5-alpha
# Procedure: GST-HIAP2 (cIAP-1) BIR3: HIAP2 coding sequence from amino acids 251-363 cloned into PGex4T3 via BamH1 and XhoI. The plasmid was transformed into E. coli DH5α for use in protein expression and purification.
# as §1, §2, §3
# [4] = target: T4, cIAP-2 bir3 domain (GST-HIAP1(cIAP-2) BIR3) (Homo sapiens, UniProt Q13489); experiment: Fluorescence polarization-based competition assay, cIAP-2; type: binding; conditions: Ki calculated from displacement of fluorescent probe; read-out: Fluorescent polarization (FP) assay cIAP-2
# T4 construct: made in house; host or cells: E. coli DH5-alpha
# Procedure: GST-HIAP1(cIAP-2) BIR3: HIAP1 coding sequence from amino acids 236-349, cloned into PGex4T3 via BamH1 and XhoI. The plasmid was transformed into E. coli DH5α for use in protein expression and purification.
# as §1, §2, §3
# [5] = tested on: MDA-MB-231 (breast) cancer cells; experiment: Cell viability (MTT) assay, MDA cells; conditions: Homo sapiens, MTT based assay
# Procedure: (§4) MDA-MD-231 (breast) and SKOV-3 (ovarian) cancer cells were cultured in RPMI1640 media supplemented with 10% FBS and 100 units/mL of Penicillin and Steptomycin.
# (§5) Viability assays were done on a number of cells including MDA-MB-231, SKOV-3, H460, PC3, HCT-116, and SW480 cells. Cells were seeded in 96 well plates at a respective density of 5000 and 2000 cells per well and incubated at 37° C. in presence of 5% CO2 for 24 hours. Selected compounds were diluted into the media at various concentration ranging from 0.01 uM up to 100 uM. Diluted compounds were added onto the MDA-MB-231 cells. For the MDA-MB-231 SKOV3, H460, PC3, HCT-116, and SW480 cells, the compounds were added either alone or in presence of 1-3 ng/ml of TRAIL. After 72 hours cellular viability was evaluated by MTT based assays.
# [6] = tested on: SKOV-3 (ovarian) cancer cells; experiment: Cell viability (MTT) assay, SKOV3 cells; conditions: 72 hours, MTT based assay; compounds added either alone or in presence of 1-3 ng/ml of TRAIL
# Procedure: as §4, §5
# T1 sequence (P98170 93-497): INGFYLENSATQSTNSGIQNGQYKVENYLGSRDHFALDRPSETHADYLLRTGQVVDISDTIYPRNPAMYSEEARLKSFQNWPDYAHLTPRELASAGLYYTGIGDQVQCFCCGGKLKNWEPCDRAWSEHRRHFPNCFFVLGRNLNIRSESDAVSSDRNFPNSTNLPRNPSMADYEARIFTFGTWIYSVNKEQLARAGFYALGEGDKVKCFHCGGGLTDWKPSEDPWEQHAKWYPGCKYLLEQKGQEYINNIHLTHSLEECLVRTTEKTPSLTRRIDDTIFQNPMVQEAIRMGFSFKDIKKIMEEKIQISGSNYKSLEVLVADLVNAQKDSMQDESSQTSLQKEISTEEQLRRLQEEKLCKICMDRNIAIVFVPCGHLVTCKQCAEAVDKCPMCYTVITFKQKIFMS
# T4 sequence (Q13489 236-349): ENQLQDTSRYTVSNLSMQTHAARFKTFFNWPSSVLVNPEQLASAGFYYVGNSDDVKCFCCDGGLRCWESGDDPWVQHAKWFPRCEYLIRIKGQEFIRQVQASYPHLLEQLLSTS
# T2 sequence (P98170 246-497): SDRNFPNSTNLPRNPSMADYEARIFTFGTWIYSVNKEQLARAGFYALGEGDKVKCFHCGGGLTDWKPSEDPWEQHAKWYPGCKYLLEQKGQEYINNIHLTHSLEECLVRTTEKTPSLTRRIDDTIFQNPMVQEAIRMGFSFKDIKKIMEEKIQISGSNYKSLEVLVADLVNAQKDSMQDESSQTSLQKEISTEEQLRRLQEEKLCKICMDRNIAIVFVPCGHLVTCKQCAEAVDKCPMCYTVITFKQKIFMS
# T3 sequence (Q13490 251-363): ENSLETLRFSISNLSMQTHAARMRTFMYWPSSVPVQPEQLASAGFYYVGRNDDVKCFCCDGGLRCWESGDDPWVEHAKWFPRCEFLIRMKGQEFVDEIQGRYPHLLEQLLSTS
"EC50 ([5]; MDA-MB-231, 72 h) [nM]",EC50 [6] [nM],SMILES,IC50 [1] [nM],Ki [2] [nM],Ki [3] [nM],Ki [4] [nM],"EC50 ([5]; MDA-MB-231, 72 hours) [nM]"
–,–,CN[C@@H](C)C(=O)N[C@H](C(=O)N1CCC[C@H]1CN(CCc1ccccc1)C(=O)[C@H](N)Cc1ccc(OC)cc1)[C@@H](C)OCC#CC#CCO[C@H](C)[C@H](NC(=O)[C@H](C)NC)C(=O)N1CCC[C@H]1CN(CCc1ccccc1)C(=O)[C@H](N)Cc1ccc(OC)cc1 [Compound 2],≤ 100,≤ 100,≤ 100,≥ 100,< 100
< 100,–,CN[C@@H](C)C(=O)N[C@H](C(=O)N1CCC[C@H]1CN(CCc1ccccc1)C(=O)c1ccccc1)[C@@H](C)OCC#CC#CCO[C@H](C)[C@H](NC(=O)[C@H](C)NC)C(=O)N1CCC[C@H]1CN(CCc1ccccc1)C(=O)c1ccccc1 [Compound 3],≤ 500,≤ 100,≤ 100,≤ 5,–
–,–,CN[C@@H](C)C(=O)N[C@H](C(=O)N1CCC[C@H]1CN(CCc1ccccc1)S(=O)(=O)c1ccccc1)[C@@H](C)OCC#CC#CCO[C@H](C)[C@H](NC(=O)[C@H](C)NC)C(=O)N1CCC[C@H]1CN(CCc1ccccc1)S(=O)(=O)c1ccccc1 [Compound 4],≤ 500,≤ 5,–,–,< 100
–,–,CN[C@@H](C)C(=O)N[C@H](C(=O)N1CCC[C@H]1CN(CCc1ccccc1)S(=O)(=O)Cc1ccccc1)[C@@H](C)OCC#CC#CCO[C@H](C)[C@H](NC(=O)[C@H](C)NC)C(=O)N1CCC[C@H]1CN(CCc1ccccc1)S(=O)(=O)Cc1ccccc1 [Compound 6],≤ 500,≤ 5,–,–,< 100
–,–,CN[C@@H](C)C(=O)N[C@H](C(=O)N1CCC[C@H]1CN(CCc1ccccc1)C(=O)OCc1ccccc1)[C@@H](C)OCC#CC#CCO[C@H](C)[C@H](NC(=O)[C@H](C)NC)C(=O)N1CCC[C@H]1CN(CCc1ccccc1)C(=O)OCc1ccccc1 [Compound 7],≤ 500,≤ 100,–,–,< 100
< 100,–,CN[C@@H](C)C(=O)N[C@H](C(=O)N1CCC[C@H]1CN(CCc1ccccc1)S(C)(=O)=O)[C@@H](C)OCC#CC#CCO[C@H](C)[C@H](NC(=O)[C@H](C)NC)C(=O)N1CCC[C@H]1CN(CCc1ccccc1)S(C)(=O)=O [Compound 8],≤ 500,≤ 5,–,–,–
< 100,–,CN[C@@H](C)C(=O)N[C@@H](COCc1ccc(COC[C@H](NC(=O)[C@H](C)NC)C(=O)N2CCC[C@H]2CN(CCc2ccccc2)C(=O)C(F)(F)F)cc1)C(=O)N1CCC[C@H]1CN(CCc1ccccc1)C(=O)C(F)(F)F [Compound 11],≥ 1000,–,–,≥ 100,–
–,–,CN[C@@H](C)C(=O)N[C@@H](COCc1ccc(-c2ccc(COC[C@H](NC(=O)[C@H](C)NC)C(=O)N3CCC[C@H]3CN(CCc3ccccc3)C(=O)C(F)(F)F)cc2)cc1)C(=O)N1CCC[C@H]1CN(CCc1ccccc1)C(=O)C(F)(F)F [Compound 12],≥ 1000,≥ 100,≤ 100,≤ 5,< 100
< 1000,–,CN[C@@H](C)C(=O)N[C@@H](COC(=O)CCCCCC(=O)OC[C@H](NC(=O)[C@H](C)NC)C(=O)N1CCC[C@H]1CN(CCc1ccccc1)C(=O)c1ccccc1)C(=O)N1CCC[C@H]1CN(CCc1ccccc1)C(=O)c1ccccc1 [Compound 13],–,≤ 100,–,–,–
< 1000,–,CN[C@@H](C)C(=O)N[C@@H](COC(=O)c1ccc(C(=O)OC[C@H](NC(=O)[C@H](C)NC)C(=O)N2CCC[C@H]2CN(CCc2ccccc2)C(=O)c2ccccc2)cc1)C(=O)N1CCC[C@H]1CN(CCc1ccccc1)C(=O)c1ccccc1 [Compound 14],–,≤ 100,–,–,–
–,< 1000,CN[C@@H](C)C(=O)N[C@@H](CCCNC(=O)CCCC(=O)NCCC[C@H](NC(=O)[C@H](C)NC)C(=O)N1CCC[C@H]1CN(CCc1ccccc1)S(=O)(=O)c1ccc(F)cc1)C(=O)N1CCC[C@H]1CN(CCc1ccccc1)S(=O)(=O)c1ccc(F)cc1 [Compound 43],–,–,–,–,–
–,< 1000,CN[C@@H](C)C(=O)N[C@@H](CCCNC(=O)CCCCC(=O)NCCC[C@H](NC(=O)[C@H](C)NC)C(=O)N1CCC[C@H]1CN(CCc1ccccc1)S(=O)(=O)c1ccc(F)cc1)C(=O)N1CCC[C@H]1CN(CCc1ccccc1)S(=O)(=O)c1ccc(F)cc1 [Compound 44],–,–,–,–,–
–,< 1000,CN[C@@H](C)C(=O)N[C@@H](CCCNC(=O)c1ccc(C(=O)NCCC[C@H](NC(=O)[C@H](C)NC)C(=O)N2CCC[C@H]2CN(CCc2ccccc2)S(=O)(=O)c2ccc(F)cc2)cc1)C(=O)N1CCC[C@H]1CN(CCc1ccccc1)S(=O)(=O)c1ccc(F)cc1 [Compound 45],–,–,–,–,–
–,< 100,CN[C@@H](C)C(=O)N[C@@H](CCCCNC(=O)C(=O)NCCCC[C@H](NC(=O)[C@H](C)NC)C(=O)N1CCC[C@H]1CN(CCc1ccccc1)C(=O)C(F)(F)F)C(=O)N1CCC[C@H]1CN(CCc1ccccc1)C(=O)C(F)(F)F [Compound 46],–,–,–,–,–
–,< 1000,CN[C@@H](C)C(=O)N[C@@H](CCCCNC(=O)NCCCC[C@H](NC(=O)[C@H](C)NC)C(=O)N1CCC[C@H]1CN(CCc1ccccc1)C(=O)C(F)(F)F)C(=O)N1CCC[C@H]1CN(CCc1ccccc1)C(=O)C(F)(F)F [Compound 47],–,–,–,–,–
